This is an account of results in patent publication US8609690B2, “Aryl- and heteroarylcarbonyl derivatives of substituted nortropanes, medicaments containing such compounds and their use” (Boehringer Ingelheim International GmbH, priority 2008, dated 2013).

T1 sequence (P28845 whole entry): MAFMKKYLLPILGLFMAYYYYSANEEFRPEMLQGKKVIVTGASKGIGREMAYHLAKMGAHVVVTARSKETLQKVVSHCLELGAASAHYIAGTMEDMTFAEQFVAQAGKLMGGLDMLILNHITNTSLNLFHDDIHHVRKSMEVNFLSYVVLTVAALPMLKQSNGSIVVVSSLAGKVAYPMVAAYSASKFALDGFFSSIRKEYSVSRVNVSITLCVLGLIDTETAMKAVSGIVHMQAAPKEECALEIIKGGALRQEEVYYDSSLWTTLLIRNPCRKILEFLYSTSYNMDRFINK

The first assay has as its target T1, 11β-HSD 1 (Homo sapiens, UniProt P28845).
T1 construct: detecting cortisol generated from cortisterone by human liver microsomes; from tissue; host or cells: human liver microsomes
As to the kind of experiment: In vitro inhibition of 11β-HSD 1, HTRF detection of cortisol generated by human liver microsomes. The assay is classed as biochemical. The conditions noted are these: 1 μM test compound, 100% indicates no inhibition, zero or below zero indicates complete inhibition (relative to carbenoxolone). As to the method: Briefly, compounds were incubated for 1 hour at 37° C. in Tris buffer (20 mM tris, 5 mM EDTA, pH 6.0) containing NADPH (200 μM) and cortisone (80 nM). Cortisol generated in the reaction is then detected with a competitive immunoassay, involving two HTRF conjugates: cortisol linked to XL665 and anti-cortisol antibody labeled with Europium cryptate. The incubation period for detection reaction was typically 2 hours. The amount of cortisol is determined by reading the time-resolved fluorescence of the wells (Ex 320/75 nm; Em 615/8.5 nm and 665/7.5 nm). The ratio of the two emission signals is then calculated (Em665*10000/Em615). […] Each assay also contained a calibration curve with cortisol to transform the fluorescent data into cortisol concentrations. Percent inhibition of each compound was determined relative to the carbenoxolone signal. In Table 2 the 11β-HSD 1 inhibitory activities at 1 μM concentration of test compound, determined as described above, of the compounds listed in Table 3 are compiled, wherein 100% indicates no inhibition and a value of zero or below zero indicates complete inhibition.
For the molecule `O=C(c1ccc2c(c1)OCCO2)N1[C@@H]2CC[C@H]1C[C@@H](c1ccc(OC(F)(F)F)cc1)C2` [Example 140, endo-(2,3-Dihydro-benzo[1,4]dioxin-6-yl)-[3-(4-trifluoromethoxy-phenyl)-8-aza-bicyclo[3.2.1]oct-8-yl]-methanone], the “Inhibitory activity on 11β-HSD 1, % CTL” value was −5 % CTL.
Still for that read-out and setting: the result for `Cc1nc2cc(C(=O)N3[C@@H]4CC[C@H]3C[C@@H](c3ccc(F)cc3)C4)ccc2c(=O)[nH]1` [Example 69, endo-7-[3-(4-Fluoro-phenyl)-8-aza-bicyclo[3.2.1]octane-8-carbonyl]-2-methyl-3H-quinazolin-4-one] reads 93 % CTL; that for `Cc1cc(C(F)F)n2ncc(C(=O)N3[C@@H]4CC[C@H]3C[C@@H](c3ccc(F)cc3)C4)c2n1` [Example 4, endo-(7-Difluoromethyl-5-methyl-pyrazolo[1,5-a]pyrimidin-3-yl)-[3-(4-fluoro-phenyl)-8-aza-bicyclo[3.2.1]oct-8-yl]-methanone], 87 % CTL.
The same measure, in the same setting: the result for `Cc1ccc(C(=O)N2[C@@H]3CC[C@H]2C[C@@H](c2ccc(F)cc2)C3)cc1O` [Example 55, endo-[3-(4-Fluoro-phenyl)-8-aza-bicyclo[3.2.1]oct-8-yl]-(3-hydroxy-4-methyl-phenyl)-methanone] reads 31 % CTL; that for `O=C(c1ccc2c(c1)OCCO2)N1C2CCC1CC(c1ccc(F)c(Cl)c1)C2` (stereo not drawn) [Example 148, [3-(3-Chloro-4-fluoro-phenyl)-8-aza-bicyclo[3.2.1]oct-8-yl]-(2,3-dihydro-benzo[1,4]dioxin-6-yl)-methanone], −48 % CTL; that for `O=C(c1ccc(O)c(C(F)(F)F)c1)N1[C@@H]2CC[C@H]1C[C@@H](c1ccc(F)cc1)C2` [Example 174, endo-[3-(4-Fluoro-phenyl)-8-aza-bicyclo[3.2.1]oct-8-yl]-(4-hydroxy-3-trifluoromethyl-phenyl)-methanone], −40 % CTL.
For `Nc1c(Cl)cc(C(=O)N2[C@@H]3CC[C@H]2C[C@@H](c2ccc(F)cc2)C3)cc1Cl` [Example 178, endo-(4-Amino-3,5-dichloro-phenyl)-[3-(4-fluoro-phenyl)-8-aza-bicyclo[3.2.1]oct-8-yl]-methanone], the “Inhibitory activity on 11β-HSD 1, % CTL” value was −22 % CTL.
In the case of `Nc1ccc(C(=O)N2[C@@H]3CC[C@H]2C[C@@H](c2ccc(F)cc2)C3)cc1` [Example 177, endo-(4-Amino-phenyl)-[3-(4-fluoro-phenyl)-8-aza-bicyclo[3.2.1]oct-8-yl]-methanone], the “Inhibitory activity on 11β-HSD 1, % CTL” value is −44 % CTL.
Same read-out and setting: the result for `NC(=O)c1ccc(C(=O)N2[C@@H]3CC[C@H]2C[C@@H](c2ccc(F)cc2)C3)c(F)c1` [Example 36, endo-3-Fluoro-4-[3-(4-fluoro-phenyl)-8-aza-bicyclo[3.2.1]octane-8-carbonyl]-benzamide] reads −28 % CTL.
Still for that read-out and setting: the result for `O=C(c1ccc(Cl)cc1)N1[C@@H]2CC[C@H]1C[C@@H](c1ccc(F)cc1)C2` [Example 112, endo-(4-Chloro-phenyl)-[3-(4-fluoro-phenyl)-8-aza-bicyclo[3.2.1]oct-8-yl]-methanone] reads 40 % CTL; that for `COC(=O)c1cccc(C(=O)N2[C@@H]3CC[C@H]2C[C@@H](c2ccc(F)cc2)C3)c1` [Example 61, endo-3-[3-(4-Fluoro-phenyl)-8-aza-bicyclo[3.2.1]octane-8-carbonyl]-benzoic acid methyl ester], 94 % CTL; that for `Nc1nc2cc(C(=O)N3[C@@H]4CC[C@H]3C[C@@H](c3ccc(F)cc3)C4)ccc2[nH]1` [Example 48, endo-(2-Amino-1H-benzoimidazol-5-yl)-[3-(4-fluoro-phenyl)-8-aza-bicyclo[3.2.1]oct-8-yl]-methanone], 1 % CTL.
Still for that read-out and setting: as for `Cc1cccc(C(=O)N2[C@@H]3CC[C@H]2C[C@@H](c2ccc(F)cc2)C3)c1` [Example 99, endo-[3-(4-Fluoro-phenyl)-8-aza-bicyclo[3.2.1]oct-8-yl]-m-tolyl-methanone], the figure is −39 % CTL; as for `Cc1ccc(C(=O)N2[C@@H]3CC[C@H]2C[C@@H](c2ccc(F)cc2)C3)cc1` [Example 101, endo-[3-(4-Fluoro-phenyl)-8-aza-bicyclo[3.2.1]oct-8-yl]-p-tolyl-methanone], 4 % CTL; as for `COc1ccccc1C(=O)N1[C@@H]2CC[C@H]1C[C@@H](c1ccc(F)cc1)C2` [Example 110, endo-[3-(4-Fluoro-phenyl)-8-aza-bicyclo[3.2.1]oct-8-yl]-(2-methoxy-phenyl)-methanone], 87 % CTL.
With `O=C1CCCN1c1ccc(C(=O)N2[C@@H]3CC[C@H]2C[C@@H](c2ccc(F)cc2)C3)cc1` [Example 65, endo-1-{4-[3-(4-Fluoro-phenyl)-8-aza-bicyclo[3.2.1]octane-8-carbonyl]-phenyl}-pyrrolidin-2-one], the “Inhibitory activity on 11β-HSD 1, % CTL” value turned out to be 33 % CTL.
For the molecule `O=C(c1ccc(CO)cc1)N1[C@@H]2CC[C@H]1C[C@@H](c1ccc(F)cc1)C2` [Example 121, endo-[3-(4-Fluoro-phenyl)-8-aza-bicyclo[3.2.1]oct-8-yl]-(4-hydroxymethyl-phenyl)-methanone], the “Inhibitory activity on 11β-HSD 1, % CTL” value is reported as −28 % CTL.
Still for that read-out and setting: the result for `O=C(c1ccc2[nH]ncc2c1)N1[C@@H]2CC[C@H]1C[C@@H](c1ccc(F)cc1)C2` [Example 180, endo-[3-(4-Fluoro-phenyl)-8-aza-bicyclo[3.2.1]oct-8-yl]-(1H-indazol-5-yl)-methanone] reads −41 % CTL.
Still for that read-out and setting: as for `O=C(c1ccc2cc[nH]c2c1)N1[C@@H]2CC[C@H]1C[C@@H](c1ccc(F)cc1)C2` [Example 62, endo-[3-(4-Fluoro-phenyl)-8-aza-bicyclo[3.2.1]oct-8-yl]-(1H-indol-6-yl)-methanone], the figure is −47 % CTL.
Still for that read-out and setting: as for `CCn1ncc(C(=O)N2[C@@H]3CC[C@H]2C[C@@H](c2ccc(C)cc2)C3)c1C` [Example 38, endo-(1-Ethyl-5-methyl-1H-pyrazol-4-yl)-(3-p-tolyl-8-aza-bicyclo[3.2.1]oct-8-yl)-methanone], the figure is 12 % CTL; as for `O=C(c1cccc(CO)c1)N1[C@@H]2CC[C@H]1C[C@@H](c1ccc(F)cc1)C2` [Example 82, endo-[3-(4-Fluoro-phenyl)-8-aza-bicyclo[3.2.1]oct-8-yl]-(3-hydroxymethyl-phenyl)-methanone], 5 % CTL.
`COC(=O)c1ccc(C(=O)N2[C@@H]3CC[C@H]2C[C@@H](c2ccc(C)cc2)C3)s1` [Example 9, endo-5-(3-p-Tolyl-8-aza-bicyclo[3.2.1]octane-8-carbonyl)-thiophene-2-carboxylic acid methyl ester]: the “Inhibitory activity on 11β-HSD 1, % CTL” value is recorded as 87 % CTL.
Still for that read-out and setting: the result for `Cc1ccc(C(=O)N2[C@@H]3CC[C@H]2C[C@@H](c2ccc(F)cc2)C3)c(C)c1` [Example 122, endo-(2,4-Dimethyl-phenyl)-[3-(4-fluoro-phenyl)-8-aza-bicyclo[3.2.1]oct-8-yl]-methanone] reads 63 % CTL.

Staying with this assay, now noted: 1 μM test compound, 100% indicates no inhibition, zero or below zero indicates complete inhibition (relative to carbenoxolone), 1 µM.
`NC(=O)c1ccc(C(=O)N2[C@@H]3CC[C@H]2C[C@@H](c2ccc(F)cc2)C3)cc1` [Example 81, endo-4-[3-(4-Fluoro-phenyl)-8-aza-bicyclo[3.2.1]octane-8-carbonyl]-benzamide]: the “Inhibitory activity on 11β-HSD 1, % CTL” value was −9 % CTL.
